{
  "source": "patent US20080248008A1",
  "about": "“Inhibitors of Protein Kinase a Anchoring” (priority 2004, published 2008)",
  "key": {"[1]": {"test": "Circular dichroism, α helical content", "format": "physicochemical", "experimental": "Circular Dichroism. CD spectra were recorded by using a Jasco J-810 spectropolarimeter (Jasco). Measurements were performed at 25° C. by using a quartz cuvette (Starna) with a path length of 0.1 cm. All the measurements were performed with a peptide concentration of 0.10 mg/ml in PBS containing 0-75% trifluoroethanol (TFE). Samples were scanned five times at 20 nm/min with a bandwidth of 1 nm and a response time of 1 s, over the wavelength range 190 to 260 nm. The data were averaged, and the spectrum of a peptide-free control sample was subtracted. The α helical content was calculated after smoothing (means-movement method; convolution width, 13) from ellipticity data, using the neural network program CDNN version 2.1. All measurements were conducted three times."}, "PKA-C subunit": {"tested_on": "PKA-C subunit", "test": "Coimmunoprecipitation of PKA kinase activity from HEK293 cells", "format": "biochemical, human", "experimental": "Coimmunoprecipitation of PKA kinase activity. Cells at 50-80% confluency were transfected by using FuGENE (Roche Biochemicals). Five micrograms of plasmid DNA (GFP-AKAP-is-V5His, GFP-Scrambled-AKAP-is-V5His, GFP-MEME3-V5H is-and GFP-Scrambled-MEME3-V5His) was transfected into HEK293-cells. Cells were lysed 24 h later in 20 mM Hepes, pH 7.5/150 mM NaCl/1 mM EDTA/1% Triton X-100. MEME3 and the other peptides was immunoprecipitated. PKA kinase assays were performed by the filter paper assay (Corbin and Reimann, 1974, Methods Enzymol., 38, 287-294). The protein kinase inhibitor (PKI) residues 5-24 peptide was used as a specific inhibitor of the kinase (Scott et al., 1986, PNAS, 83, 1613-1616).\nThe specific activity (pmol/min per IP) of PKA-C subunit from HEK293 cells co-precipitating with chimeric MEME3 fusion protein was measured by a phosphotransferase assay using Kemptide as a substrate (Kemp et al., J. Biol. Chem. 252, p 4888-4894, 1977; Roskoski, R. Methods Enzymol. 99, p 3-6, 1983) in the absence and presence of cAMP (FIG. 12). Specific PKA activity was abrogated when PKI (5-24) peptide (10 μM) was added to the reaction mixture. The MEME3 fusion protein coprecipitated 17-fold more PKA-C activity than the RIIα-selective peptide, AKAP-is (IS) (Alto et al., 2003, supra). […] The accumulated data from three independent experiments are shown."}, "PKA type I": {"target": "T1, PKA type I (Mus musculus, UniProt Q9DBC7)", "T1 construct": "host or cells: mouse Y-1 adrenocortical cells (lysate)", "test": "Solid phase immobilization from Y-1 adrenal cell lysate, PKA type I", "format": "binding", "details": "overnight", "experimental": "(§1) Solid phase assay and cell lysate. 5×10^6 Y1 cells or 20×10^6 Jurkat T cells lysed in 150 mM NaCl, 1% NP-40, 0.5% deoxycholate, 0.1% SDS and 50 mM Tris HCl (7.8) were incubated overnight at 4° C. with MEME3 and SM3 peptides synthesized on membranes (Autospot, Intavis, AG). The membranes were washed two times for 10 minutes in lysis buffer and thereafter in high salt lysis buffer (1 M NaCl) before boiling in SDS-PAGE loading buffer.\nA solid phase immobilization assay (schematic illustration in FIG. 24, left panel) was used to analyse endogenous PKA binding to MEME3. MEME3 and SM3 peptides synthesized in triplicate on membranes were incubated overnight in lysate from Y-1 adrenal cells. Thereafter bound proteins were eluted, subjected to 10% PAGE and analysed by immunoblotting using specific antibodies against PKA-RIα, PKA-C and PKA-RIIα subunits."}, "Human RIα": {"target": "T2, Human RIα (Homo sapiens, UniProt P10644)", "T2 construct": "made in house; host or cells: E. coli BL21 (B121 [sic])", "test": "R-overlay with human RIα", "format": "binding", "details": "equal amounts of human or bovine RIα, n=3", "experimental": "R-overlay. R-overlays were conducted as described, using ^32P-labeled recombinant murine RII (Hausken, Z. E., et al., 1998 in Protein Targeting Protocols, ed. Clegg, R. A. (Humana, Totowa, N.J.), Vol. 88, pp. 47-64) or recombinant bovine RI (A98S) or by cold RI-overlay where bound RIα was detected by Western blot. Cold RI-overlay was performed by incubating the membranes with 250 nM RI overnight at 4° C., then the membranes were washed five times in TBST for 5 min. Detection of RI was performed using an anti-RI rabbit polyclonal antibody (Santa Cruz) at a concentration of 0.2 μg/μl for 1 hour at 4° C. Then the membranes were washed five times for 5 minutes in PBS followed by incubation with HRP-conjugated anti-rabbit IgGs (1:5000) for 1 hour at 4° C. The membranes were washed in PBS as described above before detection by Supersignal West Dura Extended Duration Substrate (Pierce).\nThe MEME3 sequence was synthesized on a membrane and RIα binding analysed by R-overlay using equal amounts of either human or bovine RIα (FIG. 3C)."}, "PKA-RIIα": {"target": "PKA-RIIα (Homo sapiens, UniProt P13861)", "sequence (P13861 whole entry)": "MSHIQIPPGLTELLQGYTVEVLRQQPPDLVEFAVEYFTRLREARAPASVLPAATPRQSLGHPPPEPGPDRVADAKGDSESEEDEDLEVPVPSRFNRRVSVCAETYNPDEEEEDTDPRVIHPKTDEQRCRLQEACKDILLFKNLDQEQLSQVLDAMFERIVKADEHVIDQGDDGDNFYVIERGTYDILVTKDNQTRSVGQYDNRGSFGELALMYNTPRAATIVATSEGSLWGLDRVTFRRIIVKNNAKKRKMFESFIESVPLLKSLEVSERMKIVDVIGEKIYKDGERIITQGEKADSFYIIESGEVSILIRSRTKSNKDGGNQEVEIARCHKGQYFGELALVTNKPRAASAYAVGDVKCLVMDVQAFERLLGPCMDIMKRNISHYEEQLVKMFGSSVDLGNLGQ", "test": "Solid phase pull down from T cell lysate, PKA-RIIα", "format": "binding", "design": "endogenous in cells; host or cells: Jurkat T cells (lysate)", "details": "overnight", "experimental": "as §1\nSolid phase pull down (see schematic illustration in FIG. 24A, left panel) was performed to analyse endogenous PKA binding to MEME3. MEME3 and SM3 peptides synthesized in triplicate on membranes were incubated overnight in T cell lysate, thereafter bound proteins were eluted, subjected to 10% PAGE electrophoresis and analysed by immunoblotting (FIG. 11). The presence of PKA subunits was assessed by immunoblotting using specific antibodies against PKA-RIα and PKA-RIIα subunits."}},
  "data": [
    {"compound": "LEQYANQLADQIIKEATERRRRRRRRRrr [MEME3-Arg11]", "values": [
      {"measurement": "helicity", "setting": "[1]; 50% TFE", "value": 39, "unit": "%"}
    ]},
    {"compound": "CC[C@H](C)[C@H](NC(=O)[C@H](CCC(N)=O)NC(=O)[C@H](CC(=O)O)NC(=O)[C@H](C)NC(=O)[C@H](CC(C)C)NC(=O)[C@H](CCC(N)=O)NC(=O)[C@H](CC(N)=O)NC(=O)[C@H](C)NC(=O)[C@H](Cc1ccc(O)cc1)NC(=O)[C@H](CCC(N)=O)NC(=O)[C@H](CCC(=O)O)NC(=O)[C@@H](N)CC(C)C)C(=O)N[C@H](C(=O)N[C@@H](CCCCN)C(=O)N[C@@H](CCC(=O)O)C(=O)N[C@@H](C)C(=O)N[C@H](C(=O)N[C@@H](CCC(=O)O)C(=O)N[C@@H](CCCCNC(=O)c1ccc2c(c1)C(=O)OC21c2ccc(O)cc2Oc2cc(O)ccc21)C(N)=O)[C@@H](C)O)[C@@H](C)CC", "note": "[MEME3]", "values": [
      {"measurement": "coprecipitated PKA-C activity relative to AKAP-is (IS)", "setting": "PKA-C subunit; Kemptide substrate, three experiments", "value": 17, "unit": "fold"},
      {"measurement": "immobilization of PKA type I (PKA-RIα, PKA-C)", "setting": "PKA type I", "value": "Only PKA type I was immobilized"},
      {"measurement": "human RIα binding (R-overlay)", "setting": "Human RIα", "value": "bound with similar affinity to MEME3 as did bovine RIα"},
      {"measurement": "helicity", "setting": "[1]; 50% TFE", "value": 49, "unit": "%"},
      {"measurement": "helicity", "setting": "[1]; absence of TFE", "value": 12, "unit": "%"},
      {"measurement": "immobilization of PKA-RIIα", "setting": "PKA-RIIα", "value": "not PKA-RIIα"}
    ]},
    {"compound": "IEKELAQQYQNADAITLE [SM3, scrambled MEME3 negative control peptide, reference compound]", "values": [
      {"measurement": "coprecipitated kinase activity", "setting": "PKA-C subunit", "value": "No kinase activity was detected"},
      {"measurement": "immobilization of PKA type I (PKA-RIα, PKA-C)", "setting": "PKA type I", "value": "Neither PKA-RIα, PKA-C nor PKA-RIIα were immobilized"},
      {"measurement": "human RIα binding (R-overlay)", "setting": "Human RIα", "value": "no RIα binding at all"},
      {"measurement": "helicity", "setting": "[1]; 50% TFE", "value": 29, "unit": "%"},
      {"measurement": "helicity", "setting": "[1]; absence of TFE", "value": 7, "unit": "%"},
      {"measurement": "immobilization of PKA-RIIα", "setting": "PKA-RIIα", "value": "Neither PKA-RIα nor PKA-RIIα bound"}
    ]}
  ]
}
